Data taken from patent US9586986B2, “Substituted 7-deazapurine ribonucleosides for therapeutic uses” (Institute of Organic Chemistry and Biochemistry ASCR, v.v.i., priority 2014, dated 2017).

How the values were obtained:
Assay type in all cases: cell-based
[1] = tested on: HCV subtype 1B replicon in Huh-7 cells; assay: HCV sub-genomic reporter replicon assay, subtype 1B; conditions: Hepatitis C virus; Huh-7 cells, HCV subtype 1B replicon; read-out: Replicon 1B EC50
Experimental: (§1) Compounds were also tested in Huh-7 cells harboring sub-genomic reporter replicons derived from HCV subtypes 1B and 2A (ref.: Stuyver, L. J.; Whitaker, T.; McBrayer, T. R.; Hernandez-Santiago, B. I.; Lostia, S.; Tharnish, P. M.; Ramesh, M.; Chu, C. K.; Jordan, R.; Shi, J. X.; Rachakonda, S.; Watanabe, K. A.; Otto, M. J.; Schinazi, R. F. Antimicrob. Agents Chemother. 2003, 47, 244-254).

K562 = assay: Cytostatic/cytotoxic MTT assay, K562; conditions: Homo sapiens, K562; 72 h incubation; read-out: MTT, IC50 K562
Excerpt: (§2) Unless otherwise stated, all cells were purchased from the […] (ATCC). The CCRF-CEM line is derived from T lymphoblastic leukemia, evincing high chemosenzitivity, K562 represent cells from a […] patient sample with bcr-abl translocation, HCT116 is colorectal tumor cell line and its p53 gene knock-down counterpart (HCT116p53−/−, Horizon Discovery, UK) is a model of human cancers with p53 inactivation frequently associated with poor prognosis, A549 cell line is lung adenocarcinoma. The daunorubicin resistant subline of CCRF-CEM cells (CEM-DNR bulk) and paclitaxel resistant subline K562-TAX were selected in our laboratory by cultivation of maternal cell lines in increasing concentrations of daunorubicine or paclitaxel, respectively. The CEM-DNR cells overexpress mrp-1 and mdr-1 genes, while K562-TAX cells overexpress mdr-1 only. Both proteins belong to the family of ABC transporters and are involved in the primary and/or acquired multidrug resistance phenomenon (ref.: Gottesman, M. M.; Fojo, T.; Bates, S. E. Multidrug resistance in cancer: role of ATP-dependent transporters. Nat. Rev. Cancer. 2002, 2, 48-58. (b) Noskova, V.; Dzubak, P.; Kuzmina, G.; Ludkova, A.; Stehlik, D.; Trojanec, R.; Janostakova, A.; Korinkova, G.; Mihal, V.; Hajduch, M. In vitro chemoresistance profile and expression/function of MDR associated proteins in resistant cell lines derived from CCRF-CEM, K562, A549 and MDA MB 231 parental cells. Neoplasma 2002, 49, 418-425). Non-malignant MRC-5 and BJ cells, derived from normal human fibroblasts, were used as controls. The cells were maintained in Nunc/Corning 80 cm^2 plastic tissue culture flasks and cultured in cell culture medium (DMEM/RPMI 1640 with 5 g/L glucose, 2 mM glutamine, 100 U/mL penicillin, 100 µg/mL streptomycin, 10% fetal calf serum, and NaHCO3). Cell suspensions were prepared and diluted according to the particular cell type and the expected target cell density (25,000-30,000 cells/well based on cell growth characteristics). Cells were added by pipette (80 L) into 96-well microtiter plates. Inoculates were allowed a pre-incubation period of 24 h at 37° C. and 5% CO2 for stabilization. Four-fold dilutions, in 20-L aliquots, of the intended test concentration were added to the microtiter plate walls at time zero. All test compound concentrations were examined in duplicate. Incubation of the cells with the test compounds lasted for 72 h at 37° C., in a 5% CO2 atmosphere at 100% humidity. At the end of the incubation period, the cells were assayed using MTT. Aliquots (10 L) of the MTT stock solution (5 mg/ml) were pipetted into each well and incubated for another 1-4 h. After this incubation period the formazan produced was dissolved by addition of 100 µL/well of 10% aq SDS (pH 5.5), followed by a further incubation at 37° C. overnight. The optical density was measured at 540 nm. The IC50 value, the drug concentration inhibiting the cell growth by 50%, was calculated from appropriate dose-response curves.
(§3) In vitro cytotoxic/cytostatic activity final nucleosides 1-5 was initially evaluated against […] cell lines derived from human solid tumors including lung (A549 cells) and colon (HCT116 and HCT116p53−/−) carcinomas, as well as leukemia cell lines (CCRF-CEM, CEM-DNR, K562 and K562-TAX) and, for comparison, non-malignant BJ and MRC-5 fibroblasts. Concentrations inhibiting the cell growth by 50% (IC50) were determined using a quantitative metabolic staining with 3-(4,5-dimethylthiazol-2-yl)-2,5-diphenyltetrazolium bromide (MTT) (ref.: Denizot, F.; Lang, R. Rapid colorimetric assay for cell growth and survival: Modifications to the tetrazolium dye procedure giving improved sensitivity and reliability. J. Immunol. Meth. 1986, 89, 271-277) following a 3-day treatment.

A549 = assay: Cytostatic/cytotoxic MTT assay, A549; conditions: Homo sapiens, A549; 72 h incubation; read-out: MTT, IC50 A549
Excerpt: as §2, §3

[2] = tested on: Huh-7 cells harboring replicon 2A; assay: Cytotoxicity in replicon 2A cells; conditions: HCV subtype 2A replicon
Experimental: as §1

BJ = assay: Cytostatic/cytotoxic MTT assay, BJ fibroblasts; conditions: Homo sapiens, non-malignant fibroblasts, 72 h, read-out: MTT, IC50 BJ
Excerpt: as §2, §3

HeLa S3 = assay: XTT cytotoxicity assay, HeLa S3; conditions: Homo sapiens, HeLa S3; 72 h incubation; read-out: XTT, IC50 HeLa S3
Experimental: HL-60, Hela S3 and HepG2 cell lines (ATCC) were grown in RPMI-1640 or DMEM medium supplemented with 10% fetal calf serum, […] of streptomycin, 200 U/mL of penicillin G and 4 mM glutamine in a humidified atmosphere containing 5% CO2 at 37° C. Sensitivity of these cell lines to the synthesized compounds was assessed with the use of XTT cell proliferation kit II (Roche Diagnostics GmbH, Mannheim, Germany) according to the manufacturer's instructions. Briefly, cells were seeded in a 96-well plate at a density of 10,000 cells per well (90 μL). After 24 h, 10 μL of the tested compounds were added to the culture media at desired concentration range and incubated for 72 h. After that 50 μL of the XTT solution was added (1 mg/mL XTT+0.383 mg/mL N-methyl dibenzopyrazine methyl sulfate). The absorbance was recorded at 495 nm following a 2 h-incubation with the dye. IC50 values were determined by non-linear regression method using GraphPad Prism version 5.00 for Windows (GraphPad Software, La Jolla, Calif., USA).
In addition, the anti-proliferative effect was tested against a human T-lymphoblastic leukemia line CCRF-CEM, promyelocytic leukemia HL-60 and cervical carcinoma HeLa S3 growing in liquid suspension. Cell viability was determined following a 3-day incubation using 2,3-bis-(2-methoxy-4-nitro-5-sulfophenyl)-2H-tetrazolium-5-carboxanilide (XTT) assay (ref.: Scudiero, D. A.; Shoemaker, R. H.; Paull, K. D.; Monks, A.; Tierney, S.; Nofziger, T. H.; Currens, M. J.; Seniff, D.; Boyd M. R. Evaluation of a Soluble Tetrazolium/Formazan Assay for Cell Growth and Drug Sensitivity in Culture Using Human and Other Tumor Cell Lines. Cancer Res. 1988, 48, 4827-4833).

Row | Compound | EC50 [1] [µM] | IC50 (K562) [µM] | IC50 (A549) [µM] | CC50 [2] [µM] | IC50 (BJ) [µM] | IC50 (HeLa S3) [µM]
1 | COc1ncnc2c1c(-c1ccco1)cn2[C@@H]1O[C@H](CO)[C@@H](O)[C@H]1O [Compound 1a, 5-(Furan-2-yl)-4-methoxy-7-(β-D-ribofuranosyl)-7H-pyrrolo[2,3-d]pyrimidine] | 0.02 | 0.06 | 0.03 | > 44 | 0.43 | 1.02
2 | COc1ncnc2c1c(-c1ccoc1)cn2[C@@H]1O[C@H](CO)[C@@H](O)[C@H]1O [Compound 1b, 5-(Furan-3-yl)-4-methoxy-7-(β-D-ribofuranosyl)-7H-pyrrolo[2,3-d]pyrimidine] | 0.33 | 0.19 | 1.16 | > 44 | 28.8 | 1.79
3 | COc1ncnc2c1c(-c1cccs1)cn2[C@@H]1O[C@H](CO)[C@@H](O)[C@H]1O [Compound 1c, 4-Methoxy-7-(β-D-ribofuranosyl)-5-(thiophen-2-yl)-7H-pyrrolo[2,3-d]pyrimidine] | 1.08 | 0.07 | 4.85 | > 44 | 62.8 | 1.76
4 | COc1ncnc2c1c(-c1ccsc1)cn2[C@@H]1O[C@H](CO)[C@@H](O)[C@H]1O [Compound 1d, 4-Methoxy-7-(β-D-ribofuranosyl)-5-(thiophen-3-yl)-7H-pyrrolo[2,3-d]pyrimidine] | 0.55 | 0.09 | 5.17 | > 44 | 64.3 | 3.35
5 | COc1ncnc2c1c(-c1ccccc1)cn2[C@@H]1O[C@H](CO)[C@@H](O)[C@H]1O [Compound 1e, 4-Methoxy-5-phenyl-7-(β-D-ribofuranosyl)-7H-pyrrolo[2,3-d]pyrimidine] | 21 | > 20 | > 20 | > 44 | > 100 | > 20
6 | COc1ncnc2c1c(-c1cc3ccccc3o1)cn2[C@@H]1O[C@H](CO)[C@@H](O)[C@H]1O [Compound 1f, 5-(Benzofuran-2-yl)-4-methoxy-7-(β-D-ribofuranosyl)-7H-pyrrolo[2,3-d]pyrimidine] | 2.64 | 20.9 | 17.7 | > 44 | 22.4 | 9.24
7 | C#Cc1cn([C@@H]2O[C@H](CO)[C@@H](O)[C@H]2O)c2ncnc(OC)c12 [Compound 1g, 5-Ethynyl-4-methoxy-7-(β-D-ribofuranosyl)-7H-pyrrolo[2,3-d]pyrimidine] | 0.18 | 0.3 | 8.16 | > 44 | 98.4 | 1.73
8 | COc1ncnc2c1c(I)cn2[C@@H]1O[C@H](CO)[C@@H](O)[C@H]1O [Compound 1h, 5-iodo-4-methoxy-7-(β-D-ribofuranosyl)-7H-pyrrolo[2,3-d]pyrimidine, reference compound] | > 44 | > 20 | > 20 | > 44 | 91 | 14.3
9 | CSc1ncnc2c1c(-c1ccco1)cn2[C@@H]1O[C@H](CO)[C@@H](O)[C@H]1O [Compound 2a, 5-(Furan-2-yl)-4-methylsulfanyl-7-(β-D-ribofuranosyl)-7H-pyrrolo[2,3-d]pyrimidine] | 0.07 | 0.04 | 0.05 | > 44 | 0.26 | 0.54
10 | CSc1ncnc2c1c(-c1ccoc1)cn2[C@@H]1O[C@H](CO)[C@@H](O)[C@H]1O [Compound 2b, 5-(Furan-3-yl)-4-methylsulfanyl-7-(β-D-ribofuranosyl)-7H-pyrrolo[2,3-d]pyrimidine] | 4.72 | 0.06 | 0.28 | > 44 | 98.8 | 5.39
11 | CSc1ncnc2c1c(-c1cccs1)cn2[C@@H]1O[C@H](CO)[C@@H](O)[C@H]1O [Compound 2c, 4-Methylsulfanyl-7-(β-D-ribofuranosyl)-5-(thiophen-2-yl)-7H-pyrrolo[2,3-d]pyrimidine] | 5.42 | 11.6 | > 20 | > 44 | 96.9 | 1.96
12 | CSc1ncnc2c1c(-c1ccsc1)cn2[C@@H]1O[C@H](CO)[C@@H](O)[C@H]1O [Compound 2d, 4-Methylsulfanyl-7-(β-D-ribofuranosyl)-5-(thiophen-3-yl)-7H-pyrrolo[2,3-d]pyrimidine] | 10.9 | 0.45 | > 20 | > 44 | 95.8 | > 20
13 | CSc1ncnc2c1c(-c1ccccc1)cn2[C@@H]1O[C@H](CO)[C@@H](O)[C@H]1O [Compound 2e, 4-Methylsulfanyl-5-phenyl-7-(β-D-ribofuranosyl)-7H-pyrrolo[2,3-d]pyrimidine] | 23.3 | > 20 | > 20 | > 44 | > 100 | > 20
14 | CSc1ncnc2c1c(-c1cc3ccccc3o1)cn2[C@@H]1O[C@H](CO)[C@@H](O)[C@H]1O [Compound 2f, 5-(Benzofuran-2-yl)-4-methylsulfanyl-7-(β-D-ribofuranosyl)-7H-pyrrolo[2,3-d]pyrimidine] | 8.03 | 17.2 | > 20 | > 44 | 67.2 | 1.93
